This is an account of results in article PMC5441637, “The mitochondrial SIR2 related protein 2 (SIR2RP2) impacts Leishmania donovani growth and infectivity” (PLoS Neglected Tropical Diseases, 2017).

T1 sequence (A0A3S7WXV8 entry or part of it): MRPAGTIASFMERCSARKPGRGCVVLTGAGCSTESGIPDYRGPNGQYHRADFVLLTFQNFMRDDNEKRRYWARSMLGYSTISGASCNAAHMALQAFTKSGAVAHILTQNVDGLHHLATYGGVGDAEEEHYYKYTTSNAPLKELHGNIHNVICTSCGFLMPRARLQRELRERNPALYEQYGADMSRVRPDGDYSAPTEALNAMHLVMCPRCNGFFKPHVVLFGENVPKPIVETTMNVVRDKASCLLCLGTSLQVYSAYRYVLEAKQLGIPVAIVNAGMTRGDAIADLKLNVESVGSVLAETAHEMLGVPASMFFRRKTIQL

The assay addresses T1, SIR2 related protein 2 (LdSIR2RP2) (Leishmania donovani, UniProt A0A3S7WXV8).
T1 construct: gene LdCL_230021600; full-length recombinant LdSIR2RP2 (complete ORF, 320 aa; MBP/His tag removed by TEV)
Nature of the assay: […]NAD+ ADP-ribosyltransferase assay on calf thymus histones, SDS-PAGE/PhosphorImager. The assay is classed as biochemical.
As to `NC(=O)C1CCCc2c1[nH]c1ccc(Cl)cc21` (stereo not drawn) [Ex-527, 6-chloro-2,3,4,9-tetrahydro-1H-carbazole-1-carboxamide], the “[32P]NAD+ ADP-ribosyltransferase assay on calf thymus histones, SDS-PAGE/Phospho” value was ~ 50 μM. Then `O=c1[nH]c(=S)[nH]c(-c2ccccc2)c1Cc1c(O)ccc2ccccc12` [cambinol], with ~ 2.5 μM; and `NC(=O)c1cccnc1` [nicotinamide], with ~ 50 μM.
